Data published in ChEMBL document CHEMBL1201862, “PubChem BioAssay data set” (2004).
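Cells were grown in 96-well plates and exposed to each compound for 48 hours at five concentrations; endpoints were interpolated linearly between bracketing concentrations, or set to the highest concentration if not reached. At the GI50, growth is halved.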 The source made the active and inactive calls. No stated cut-off is given here; in the data, active = GI50 up to about 1.1 µM and inactive = higher.

How the values were obtained:
Test in all cases: NCI anticancer screen, dose series, 48 h
[1] = test system: NCI-H23
[2] = test system: HT-29
[3] = test system: HOP-62
[4] = test system: 786-0
[5] = test system: U-251
[6] = test system: SF-539
[7] = test system: OVCAR-8
[8] = test system: EKVX
[9] = test system: TK-10
[10] = test system: MOLT-4
[11] = test system: IGROV-1
[12] = test system: RXF 393
[13] = test system: A549
[14] = test system: SF-295
[15] = test system: UACC-62
[16] = test system: M14
[17] = test system: SK-MEL-5
[18] = test system: SN12C

Measured: GI50

Fc1ccc2c(c1)SC1Oc3ccccc3-c3c1c-2nn3-c1ccccc1 (configuration not stated)
inactive: [1] > 100 µM | [2] > 100 µM | [3] 30.4 µM | [4] > 100 µM | [5] > 100 µM | [6] > 100 µM | [7] > 100 µM | [8] > 100 µM | [9] > 100 µM | [10] > 100 µM | [11] > 100 µM | [12] 46.9 µM | [13] > 100 µM | [14] > 100 µM

Cc1ccc(S(=O)(=O)c2ccccc2[N+](=O)[O-])cc1
inactive: [1] 55.2 µM | [2] > 100 µM | [3] 92.3 µM | [4] > 100 µM | [5] > 100 µM | [6] > 100 µM | [7] > 100 µM | [8] > 100 µM | [15] 37.4 µM | [9] > 100 µM | [10] 66.7 µM | [11] > 100 µM | [12] 37.3 µM | [16] > 100 µM | [13] > 100 µM | [14] > 100 µM | [17] 52.1 µM

O=C1CCCC/C1=C1\C(=O)Nc2cc(F)ccc21
inactive: [1] > 100 µM | [2] > 100 µM | [3] > 100 µM | [4] > 100 µM | [5] > 100 µM | [6] > 100 µM | [18] > 100 µM | [7] > 100 µM | [8] > 100 µM | [15] > 100 µM | [9] > 100 µM | [10] > 100 µM | [11] > 100 µM | [12] > 100 µM | [16] > 100 µM | [13] > 100 µM | [14] > 100 µM | [17] > 100 µM

O=C(CC(=O)C1CCOC1=O)C(=O)Nc1ccc(Cl)cc1 (configuration not stated)
inactive: [1] > 100 µM | [2] > 100 µM | [3] > 100 µM | [4] > 100 µM | [5] > 100 µM | [6] > 100 µM | [18] > 100 µM | [7] > 100 µM | [8] > 100 µM | [15] > 100 µM | [9] > 100 µM | [11] > 100 µM | [12] > 100 µM | [16] > 100 µM | [13] > 100 µM | [14] > 100 µM | [17] > 100 µM

CCCN1CN(C(C(=O)N[C@@H]2C(=O)N3C2SC(C)(C)C3C(=O)O)c2ccc(O)cc2)CSC1=S (some centres not stated)
inactive: [1] > 100 µM | [2] > 100 µM | [3] > 100 µM | [4] > 100 µM | [5] > 100 µM | [6] > 100 µM | [18] > 100 µM | [7] > 100 µM | [8] > 100 µM | [15] > 100 µM | [9] > 100 µM | [10] > 100 µM | [11] > 100 µM | [16] > 100 µM | [14] > 100 µM | [17] > 100 µM

COc1ccc2c(c1)CC[C@@H]1C2CC[C@]2(C)C(=N\O)/C(=N/O)CC12 (some centres not stated)
inactive: [1] 10.2 µM | [2] 2.24 µM | [3] 11.7 µM | [4] 17.5 µM | [5] 15.4 µM | [6] 18.5 µM | [18] 17.7 µM | [7] 16.5 µM | [8] 18.7 µM | [15] 13.4 µM | [9] 18.2 µM | [10] 4.79 µM | [11] 3.64 µM | [16] 13.4 µM | [13] 10.1 µM | [14] 10 µM | [17] 12.7 µM

Clc1ccccc1C1=NN(c2ccccc2)C2c3cc(Br)ccc3OCC12 (configuration not stated)
inactive: [1] > 100 µM | [2] > 100 µM | [3] > 100 µM | [4] > 100 µM | [5] > 100 µM | [6] > 100 µM | [7] > 100 µM | [8] 89.9 µM | [9] > 100 µM | [10] 96.4 µM | [11] > 100 µM | [12] > 100 µM | [13] > 100 µM | [14] > 100 µM

C/C(CC(=O)Nc1ccc(C)c(C)c1)=N\NC(N)=S
inactive: [1] > 100 µM | [2] > 100 µM | [3] > 100 µM | [4] > 100 µM | [5] > 100 µM | [6] > 100 µM | [7] > 100 µM | [8] > 100 µM | [15] > 100 µM | [9] > 100 µM | [10] > 100 µM | [11] > 100 µM | [12] > 100 µM | [16] > 100 µM | [13] > 100 µM | [14] > 100 µM | [17] > 100 µM

O=C1OC(O)C(Oc2ccc(Cl)cc2)=C1Cl (configuration not stated)
inactive: [1] > 100 µM | [2] > 100 µM | [3] > 100 µM | [4] > 100 µM | [5] > 100 µM | [6] > 100 µM | [18] > 100 µM | [7] > 100 µM | [8] > 100 µM | [15] > 100 µM | [9] > 100 µM | [10] > 100 µM | [11] > 100 µM | [12] > 100 µM | [16] > 100 µM | [13] > 100 µM | [14] > 100 µM
